Data published in patent US9006221B2, “Method of modulating ship activity” (H. Lee Moffitt Cancer Center and Reserach Institute, Inc., priority 2008, dated 2015).

Target: T1, SHIP1 (Mus musculus, UniProt Q9ES52)
T1 construct: The asterisk in lanes 1 and 3 indicates the ˜145 kD full-length SHIP protein; His tag (C); made in house; host or cells: E. coli Rosetta-Gami 2 (DE3) pLys
T1 sequence (Q9ES52 1-1191): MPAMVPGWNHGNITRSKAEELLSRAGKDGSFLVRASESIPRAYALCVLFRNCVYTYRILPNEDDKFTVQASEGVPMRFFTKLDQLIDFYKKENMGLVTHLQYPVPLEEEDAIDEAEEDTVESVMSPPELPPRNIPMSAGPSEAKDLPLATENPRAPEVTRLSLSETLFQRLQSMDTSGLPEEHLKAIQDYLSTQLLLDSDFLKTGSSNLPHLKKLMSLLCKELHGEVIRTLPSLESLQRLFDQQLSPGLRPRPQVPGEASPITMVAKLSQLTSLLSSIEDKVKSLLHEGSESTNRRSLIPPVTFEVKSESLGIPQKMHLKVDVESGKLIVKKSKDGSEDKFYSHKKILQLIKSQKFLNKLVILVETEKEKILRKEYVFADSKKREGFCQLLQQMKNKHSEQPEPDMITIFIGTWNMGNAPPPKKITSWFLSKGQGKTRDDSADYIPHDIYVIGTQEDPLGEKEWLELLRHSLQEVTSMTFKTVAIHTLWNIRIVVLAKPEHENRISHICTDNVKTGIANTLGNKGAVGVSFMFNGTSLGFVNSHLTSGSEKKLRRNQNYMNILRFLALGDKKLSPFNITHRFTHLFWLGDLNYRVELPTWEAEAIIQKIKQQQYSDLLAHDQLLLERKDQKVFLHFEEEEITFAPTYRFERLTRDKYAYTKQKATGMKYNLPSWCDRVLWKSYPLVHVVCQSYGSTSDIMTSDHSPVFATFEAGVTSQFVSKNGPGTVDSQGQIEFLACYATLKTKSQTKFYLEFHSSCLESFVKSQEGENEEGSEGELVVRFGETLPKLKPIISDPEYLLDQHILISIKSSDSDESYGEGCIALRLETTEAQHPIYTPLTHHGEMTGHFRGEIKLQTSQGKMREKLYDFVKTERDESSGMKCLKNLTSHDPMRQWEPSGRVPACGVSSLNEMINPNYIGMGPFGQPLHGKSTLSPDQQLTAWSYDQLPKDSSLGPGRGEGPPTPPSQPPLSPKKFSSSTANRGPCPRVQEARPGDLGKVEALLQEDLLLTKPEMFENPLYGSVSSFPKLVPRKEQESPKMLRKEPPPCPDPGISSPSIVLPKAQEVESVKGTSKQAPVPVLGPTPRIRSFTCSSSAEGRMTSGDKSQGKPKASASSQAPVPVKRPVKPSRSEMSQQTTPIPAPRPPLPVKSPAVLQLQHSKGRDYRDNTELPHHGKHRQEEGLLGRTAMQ
Assay: Fluorescence polarization (FP) assay of SHIP1 enzymatic activity
Assay type: biochemical
Conditions: for SHIP inhibitory activity in FP assay: confirmatory FP assay of screening hits
Excerpt: SHIP is detectable in this expression system as a ˜145 kD protein (FIG. 1a, lane 1). Because of an in-frame Histidine (His) tag on the COOH terminus of SHIP, it can then be purified from E. coli lysates by FPLC over a Ni-containing resin. (FIG. 1a, lane 3). Purified SHIP was routinely obtained in sufficient quantities, using this E. coli expression system and FPLC purification, to conduct high-throughput screening (HTS) of chemical libraries for compounds that inhibit SHIP activity. However, prior to screening, a fluorescence polarization (FP) assay that detects SHIP activity in either a 96- or […] format, seen in FIG. 1b, screen was established. SHIP generates PI(3,4)P2 from its PI(3,4,5)P3 substrate. In the FP assay enzymatic generation of PI(3,4)P2 by SHIP reduces polarized fluorescence (mP) because the fluorescent PI(3,4)P2 “probe” is displaced from a detector protein that binds specifically to PI(3,4)P2. The FP assay is highly specific for SHIP activity in these lysates. No significant 5′-inositol phosphatase activity was detected in E. coli lysates harboring an ‘empty’ pet24b expression vector insert when FPLC fractions where SHIP typically elutes with the imidazole step gradient are analyzed in the FP assay (FIG. 1c).
After preparing purified SHIP and establishing the FP assay, two different chemical libraries, comprising a total of ˜2100 different chemical compounds, were screened. Seventeen compounds capable of inhibiting SHIP activity at μM concentrations were identified in this screen. The compounds were verified for SHIP activity inhibition by repeating the FP assay with the compounds obtained from their respective wells in the replicates of the masterplates for these libraries FIGS. 2-6).
A fluorescence polarization (FP) assay to detect and quantify SHIP2 activity has been previously described [Drees B E, et al., Comb Chem High Throughput Screen (2003) 6(4):321-330], but no assay has been described for the detection of SHIP1. A fluorescence polarization (FP) assay was developed to detect the activity of recombinant SHIP1 (see FIGS. 15a and b) and the FP assay was utilized as a rapid screen to detect compounds in chemical libraries that have inhibitory activity against SHIP1. This screen identified 3α-aminocholestane as a potent inhibitor of SHIP1 enzymatic activity (FIG. 15c). […] This high degree of selectivity could be important, since loss of PTEN function promotes malignancy in parenchymal and hematopoietic tissues. [Yuan T L & Cantley L C Oncogene (2008) 27(41):5497-5510; Zhang J, et al., Nature (2006) 441(7092):518-522; Yilmaz O H, et al., Nature (2006) 441(7092):475-482]
Assay of SHIP1 enzymatic activity: A fluorescent polarization (FP) assay that detects the 5′-inositol phosphatase activity of SHIP1 was developed based on a previously established protocol [Drees B E, et al., Comb Chem High Throughput Screen (2003) 6(4):321-330] and was obtained from Echelon Biosciences (Salt Lake City, USA). Modifications of the protocol included the application of SHIP1 in the assay and an increase in the concentration of MgCl2 to […] to maximize the activity of SHIP1 in this assay. Each enzymatic reaction was performed in a 96 well working plate and added in the following order and concentration: Recombinant SHIP1 (0.1 μg) in PBS+20 mM MgCl2, 100 μM of each individual compound from the NCI Diversity Set and then PI(3,4,5)P3 substrate diluted 1:10 in H2O. The enzymatic reaction was incubated for 30 min at room temperature. The detector, reaction mixture and probe were then combined according to the SHIP2 protocol. Malachite Green Phosphatase Assay Kit was obtained from Echelon Biosciences (Salt Lake City, USA). Assays for SHIP2 were performed according to the manufacturer's protocol. The concentration of SHIP1 and SHIP2 per reaction mixture was […]. PTEN was used at the concentration recommended by the manufacturer.

SMILES	SHIP inhibitory activity in FP assay	SHIP inhibitory activity in FP assay (listed as NSC 13480)	concentration with detectable inhibitory activity against SHIP1 (0.1 μg of recombinant SHIP1, FP assay)	inhibition of SHIP1 activity (at 100 μM in the FP assay)	SHIP inhibitory activity in FP assay (listed as NSC 23922)
OC(c1cc(-c2ccccc2)nc2c1ccc1ccccc12)C1CCCCN1 (stereo not drawn) [NSC13480, (2-phenylbenzo[h]quinolin-4-yl)-piperidin-2-ylmethanol]	inhibit both SHIP1 and SHIP2 enzymatic activity	SHIP inhibitory activity	–	–	–
CC(C)CCC[C@@H](C)[C@H]1CC[C@H]2[C@@H]3CC[C@H]4C[C@H](N)CC[C@]4(C)[C@H]3CC[C@]12C [NSC23922, (3R,5S,8R,9S,10S,13R,14S,17R)-10,13-dimethyl-17-[(2R)-6-methylheptan-2-yl]-2,3,4,5,6,7,8,9,11,12,14,15,16,17-tetradecahydro-1H-cyclopenta[a]phenanthren-3-amine]	inhibit both SHIP1 and SHIP2 enzymatic activity	–	2 µM	inhibits SHIP1 activity	SHIP inhibitory activity
